The values below come from PubChem BioAssay AID212 (DTP/NCI, 2004).

Molecules are shown by their SMILES. Where “and” joins values, the source holds several entries; their conditions need not be identical. Equal values may be shown once. Records with an inconclusive call do not appear.

For this assay, the system named is BDF1 mice, colon carcinoma 38 sc, T/C %. In words: NCI In Vivo Anticancer Drug Screen. Data for tumor model Colon Carcinoma 38 (subcutaneous) in B6D2F1 (BDF1) mice. As to conditions: endpoint: median tumor weight (est.), schedule: Q07DX002 (ip), higher = larger tumour. The method, boiled down: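 Transplantable tumor in mice; compound-treated vs vehicle-dosed controls. Measured survival or tumor size; value = T ÷ C.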

Where [1] appears, read: dose: 1.0 mg/kg/injection, vehicle: saline.
Setting [2] is: dose: 2.0 mg/kg/injection, vehicle: saline.
The mark [3] stands for this setting: dose: 4.0 mg/kg/injection, vehicle: saline.
The mark [4] stands for this setting: dose: 25.0 mg/kg/injection, vehicle: saline.
[5] abbreviates: dose: 25.0 mg/kg/injection, vehicle: suspension in saline.
[6] abbreviates: dose: 50.0 mg/kg/injection, vehicle: saline.
[7] abbreviates: dose: 50.0 mg/kg/injection, vehicle: suspension in saline.
Setting [8] is: dose: 100.0 mg/kg/injection, vehicle: saline.
The mark [9] stands for this setting: dose: 200.0 mg/kg/injection, vehicle: saline.
[10] abbreviates: dose: 400.0 mg/kg/injection, vehicle: saline.
Where [11] appears, read: dose: 25.0 mg/kg/injection, vehicle: saline with Tween-80.
The mark [12] stands for this setting: dose: 50.0 mg/kg/injection, vehicle: saline with Tween-80.
Where [13] appears, read: dose: 100.0 mg/kg/injection, vehicle: saline with Tween-80.
Where [14] appears, read: dose: 400.0 mg/kg/injection, vehicle: saline with Tween-80.
Where [15] appears, read: dose: 800.0 mg/kg/injection, vehicle: saline with Tween-80.
[16] abbreviates: dose: 12.5 mg/kg/injection, vehicle: saline with Tween-80.
The mark [17] stands for this setting: dose: 12.5 mg/kg/injection, vehicle: saline.

Consider `COC(C(=O)C(O)C(C)O)C1Cc2cc3cc(OC4CC(OC(C)=O)C(OC5CC(O)C(OC)C(C)O5)C(C)O4)cc(O)c3c(O)c2C(=O)C1OC1CC(OC2CC(OC3CC(C)(O)C(OC(=O)C(C)C)C(C)O3)C(O)C(C)O2)C(O)C(C)O1` (stereo unspecified), for which the T/C is 113 % of control (dose: 0.12 mg/kg/injection, vehicle: saline with Tween-80); 81 % of control (dose: 0.25 mg/kg/injection, vehicle: saline); 113 % of control (dose: 0.5 mg/kg/injection, vehicle: saline with Tween-80); 78 % of control (dose: 0.5 mg/kg/injection, vehicle: saline); 59 % of control (dose: 1.0 mg/kg/injection, vehicle: saline with Tween-80); 89 % of control under setting [1]. Further, the T/C (dose: 2.0 mg/kg/injection, vehicle: saline with Tween-80) was 55 % of control; the T/C under setting [2] is 124 % of control; the T/C (dose: 4.0 mg/kg/injection, vehicle: saline with Tween-80) is 48 % of control; the T/C under setting [3] was 92 % of control.

For the compound `Cn1cnc([N+](=O)[O-])c1Sc1ncn[nH]1`, the T/C reads like this: under setting [4], 78 % of control; under setting [5], 112 % of control; under setting [6], 73 % of control; under setting [7], 118 % of control; under setting [8], 79 % of control; (dose: 100.0 mg/kg/injection, vehicle: suspension in saline) 85 % of control. For the same compound, the T/C reads like this: under setting [9], 52 % of control; under setting [10], 65 % of control; (dose: 400.0 mg/kg/injection, vehicle: suspension in saline) 107 % of control; (dose: 800.0 mg/kg/injection, vehicle: saline) 84 % of control.

As to `COc1cc([C@@H]2c3cc4c(c(O)c3C[C@H]3COC(=O)[C@@H]32)OCO4)cc(OC)c1OC`, the T/C under setting [1] was 81 % of control; the T/C under setting [2] was 67 % of control; the T/C under setting [3] was 76 % of control; the T/C (dose: 8.0 mg/kg/injection, vehicle: saline) was 73 % of control; the T/C (dose: 16.0 mg/kg/injection, vehicle: saline) was 70 % of control.

For `O=C(O)C1Cc2nc[nH]c2CN1CO` (stereo unspecified), the T/C reads like this: under setting [11], 93 % of control; under setting [12], 117 % of control and 98 % of control; under setting [13], 113 % of control and 99 % of control; (dose: 200.0 mg/kg/injection, vehicle: saline with Tween-80) 86 % of control; under setting [14], 93 % of control; under setting [15], 89 % of control.

With `N#CC(=C1C=CC(=NO)C=C1)c1ccc(Cl)cc1`, the T/C runs as follows: under setting [16], 72 % of control; under setting [11], 100 % of control; under setting [13], 103 % of control; under setting [14], 46 % of control.

In the case of `Cc1cc(SCC(=O)c2ccc(Br)cc2)cc(C)[o+]1`, the T/C is 122 % of control under setting [17]; 77 % of control and 101 % of control under setting [4]; 111 % of control and 107 % of control under setting [6]; 98 % of control and 100 % of control under setting [8]; 100 % of control under setting [9].

In the case of `CCOC(=O)c1cn(C)c2c1C(O)=C(C(=O)OC)CC(=O)N2`, the T/C under setting [12] was 81 % of control, the T/C under setting [13] was 119 % of control, the T/C under setting [14] was 88 % of control and the T/C under setting [15] is 97 % of control.

As for `O=C1C=C[C@H](O)[C@@]2(CO)O[C@@H]12`, the T/C by setting is: (dose: 0.62 mg/kg/injection, vehicle: saline with Tween-80) 104 % of control; (dose: 1.25 mg/kg/injection, vehicle: saline with Tween-80) 116 % of control; (dose: 2.5 mg/kg/injection, vehicle: saline with Tween-80) 69 % of control; (dose: 5.0 mg/kg/injection, vehicle: saline with Tween-80) 79 % of control; (dose: 10.0 mg/kg/injection, vehicle: saline with Tween-80) 97 % of control.

Regarding `O=C1C=CC(n2cc(F)c(=O)[nH]c2=O)O1` (stereo unspecified), the T/C is, setting by setting: under setting [17], 113 % of control; under setting [8], 54 % of control; under setting [9], 116 % of control.

As to `Cn1/c2cc/c1=C(\c1ccc(S(=O)(=O)O)cc1)c1ccc([n-]1)/C(c1ccc(S(=O)(=O)O)cc1)=c1/cc/c([nH]1)=C(\c1ccc(S(=O)(=O)O)cc1)c1ccc([n-]1)/C=2c1ccc(S(=O)(=O)O)cc1.O.O=S(=O)(O)C(F)(F)F.[Cu+2]`, the T/C reads like this: under setting [17], 79 % of control; under setting [4], 70 % of control; under setting [6], 77 % of control; under setting [8], 89 % of control; under setting [9], 80 % of control.

As for `CCCCCn1c(C)cc(/C=C\c2ccc3cc(C)ccc3[n+]2C)c1C`, the T/C is 85 % of control and 86 % of control (dose: 0.62 mg/kg/injection, vehicle: Klucel (hydroxypropylcellulose) (HPC)); 104 % of control (dose: 1.25 mg/kg/injection, vehicle: Klucel (hydroxypropylcellulose) (HPC)); 84 % of control (dose: 37.5 micrograms/kg/injection, vehicle: Klucel (hydroxypropylcellulose) (HPC)); 186 % of control (dose: 75.0 micrograms/kg/injection, vehicle: Klucel (hydroxypropylcellulose) (HPC)); 162 % of control (dose: 150.0 micrograms/kg/injection, vehicle: Klucel (hydroxypropylcellulose) (HPC)); 188 % of control (dose: 600.0 micrograms/kg/injection, vehicle: Klucel (hydroxypropylcellulose) (HPC)).

With `O=C1N(Cl)C(=O)C(c2ccc(Cl)cc2)(c2ccc(Cl)cc2)N1Cl`, the T/C under setting [11] was 87 % of control and 90 % of control and 100 % of control.

As for `CCN(CC)CCC(=O)c1ccccc1`, the T/C (dose: 6.25 mg/kg/injection, vehicle: saline) was 85 % of control; the T/C under setting [17] is 118 % of control and 108 % of control; the T/C (dose: 12.5 mg/kg/injection, vehicle: suspension in saline) was 122 % of control; the T/C under setting [5] is 80 % of control; the T/C under setting [7] is 85 % of control; the T/C under setting [8] was 108 % of control.

Regarding `OCC1OC(n2cnc3c(=S)nc[nH]c32)C(O)C1O` (stereo unspecified), the T/C under setting [16] is 61 % of control; the T/C under setting [17] was 90 % of control; the T/C under setting [11] is 97 % of control and 118 % of control; the T/C under setting [4] was 101 % of control; the T/C under setting [12] is 77 % of control and 83 % of control and 80 % of control; the T/C under setting [6] is 14 % of control. Also, the T/C was 17 % of control under setting [8]; 46 % of control under setting [9]; 22 % of control under setting [10]; 33 % of control and 34 % of control and 57 % of control under setting [15]; 28 % of control (dose: 1600.0 mg/kg/injection, vehicle: saline with Tween-80).

In the case of `COCC1OC2OC3C(COC)OC(OC4C(COC)OC(OC5C(COC)OC(OC6C(COC)OC(OC7C(COC)OC(OC8C(COC)OC(OC1C(O)C2O)C(O)C8O)C(O)C7O)C(O)C6O)C(O)C5O)C(O)C4O)C(O)C3O` (stereo unspecified) (tested in a mixture with another compound), the T/C (dose: 25.0 mg/kg/injection, vehicle: Klucel (hydroxypropylcellulose) (HPC)) is 72 % of control; the T/C (dose: 50.0 mg/kg/injection, vehicle: Klucel (hydroxypropylcellulose) (HPC)) was 68 % of control; the T/C (dose: 100.0 mg/kg/injection, vehicle: Klucel (hydroxypropylcellulose) (HPC)) was 53 % of control; the T/C (dose: 200.0 mg/kg/injection, vehicle: Klucel (hydroxypropylcellulose) (HPC)) is 69 % of control; the T/C (dose: 400.0 mg/kg/injection, vehicle: Klucel (hydroxypropylcellulose) (HPC)) is 95 % of control.
